The values below come from patent US6689383B1, “Chromium-histidine complexes as nutrient supplements” (The United States of America as represented by the …, priority 1999, dated 2004).

Like-named read-outs stand apart in the source and are kept apart here. Marks after values point to notes of the source that are not given here.

For data set [1] the following is noted: chromium picolinate: at intakes up to 1000 μg per day; cited from earlier work.
Data set [2] in a line: Chromium absorption in humans based on urinary chromium excretion. On the procedure: Experiments were carried out to investigate the efficacy of chromium-histidine complexes in the absorption process. Chromium was administered in the formulations listed in Table 1 at dosages of 200 μg chromium to three adult males and three females, and absorption during the first 24 hours was measured based on urinary chromium excretion.

A further data set is described as follows: Stability. Format: physicochemical. To be noted: aqueous solutions.
A short description of a further data set: Water solubility. The class given is physicochemical.
In another data set the test system is steroid-induced diabetes. To be noted: 600 μg of chromium per day for 2 weeks followed by daily maintenance dose of 200 μg; cited from earlier work.
In a further data set the test system is insulin sensitivity. To be noted: 1000 μg daily of supplemental chromium, obese subjects with family history of diabetes; cited from earlier work.
The test system of the next data set is hemoglobin A1C. To be noted: type 2 diabetes, cited from earlier work.

As for `[Cl][Cr]([Cl])[Cl]` [Chromium chloride], the Absorption of chromium entry in data set [1] is given as “approximately 0.4%”. The “μGRAMS ABSORBED (chromium absorbed)” value in data set [2] (first 24 hours following intake of 200 μg of chromium, based on urinary chromium excretion, 3 adult males and 3 females) was 0.44 ± 0.07^b μGRAMS.

With `N[C@@H](Cc1c[nH]cn1)C(=O)O.[Cr]` [Chromium histidine], the Stability result in “Stability” was “stable in aqueous solutions”. Further, the Water solubility entry in the data set “Water solubility” was “water-soluble”. For the same compound, the “Absorption level relative to chromium picolinate” value in data set [2] (200 μg chromium, first 24 hours, urinary chromium excretion) is “almost twice”.

In the case of Chromium picolinate, the “People whose steroid-induced diabetes improved to acceptable levels” value in the data set with steroid-induced diabetes is reported as 47 of 50. Besides, the Insulin sensitivity entry in the data set with insulin sensitivity is “improved”. In addition, the results for the “Hemoglobin A1C” value in the data set on hemoglobin A1C (200 μg chromium per day for 4 months) and in the data set with hemoglobin A1C (1000 μg of chromium per day for 4 months) were 7.5±0.2% and 6.6±0.1%, respectively.
